In PubChem BioAssay (NCI) one finds GI50 and TGI data, which are given here for nine compounds.

Some test systems named below: EKVX NSCLC; HT29 colon; MOLT-4 leukemia; NCI-H522 lung; CCRF-CEM leukemia; SK-MEL-28 melanoma; TK-10 renal; COLO 205 colon; K-562 leukemia; IGROV1 ovarian.
Holding throughout (assay): NCI tumour cell line growth inhibition, 48 h

Several values for one entry are separate records, joined by “and”; a condition that tells them apart may be missing. Equal values may be shown once.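 Test compounds were applied to cells in 96-well plates for 48 hours at 5 doses. At the GI50, growth is halved. The concentration for full growth arrest is given as TGI.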

Regarding `CC(=O)/C(C)=N/NC(=O)c1ccccc1O`, the GI50 with EKVX NSCLC is > 100 µM; in the experiment on HT29 colon, > 100 µM; in the experiment on SK-MEL-28 melanoma it was > 100 µM; in the experiment on TK-10 renal it was > 100 µM; in the experiment with COLO 205 colon, > 100 µM; in the experiment with IGROV1 ovarian, > 10 µM. Also, the TGI with EKVX NSCLC, in the experiment on HT29 colon, in the experiment with MOLT-4 leukemia, in the experiment on NCI-H522 lung, in the experiment with CCRF-CEM leukemia and with SK-MEL-28 melanoma was > 100 µM throughout. Further, the TGI in the experiment with TK-10 renal, in the experiment with COLO 205 colon, in the experiment with K-562 leukemia and with IGROV1 ovarian was > 100 µM in each case.

Turning to `c1ccc(CNn2nnc3ccccc32)cc1`, the TGI in the experiment on EKVX NSCLC, in the experiment with HT29 colon, in the experiment on MOLT-4 leukemia, in the experiment with NCI-H522 lung, in the experiment on CCRF-CEM leukemia and in the experiment with SK-MEL-28 melanoma was > 100 µM throughout. Moreover, the TGI in the experiment on TK-10 renal, with COLO 205 colon, in the experiment with K-562 leukemia and in the experiment on IGROV1 ovarian was > 100 µM throughout.

In the case of `N=C1C(c2nc3ccccc3s2)=C(O)CN1c1cc(C(F)(F)F)ccc1Cl`, the GI50 with EKVX NSCLC was 62.7 µM; with HT29 colon, 25.8 µM; with MOLT-4 leukemia it was 16.3 µM; in the experiment with NCI-H522 lung it was 9.49 µM; with CCRF-CEM leukemia, 21.3 µM; in the experiment on SK-MEL-28 melanoma it was 69 µM. Besides, the GI50 with TK-10 renal was 52.1 µM; in the experiment on COLO 205 colon it was 30.8 µM; in the experiment with K-562 leukemia, 3.61 µM; in the experiment on IGROV1 ovarian it was 9.64 µM. Also, the TGI with EKVX NSCLC, in the experiment on HT29 colon, with MOLT-4 leukemia, in the experiment on NCI-H522 lung, in the experiment on CCRF-CEM leukemia and in the experiment on SK-MEL-28 melanoma was > 100 µM throughout. For the same compound, the TGI was > 100 µM with TK-10 renal, > 100 µM with COLO 205 colon, 21.3 µM in the experiment with K-562 leukemia and > 100 µM with IGROV1 ovarian.

As to `Cc1cn(C2CC(N(O)Cc3ccccc3)C(CO[Si](C)(C)C(C)(C)C)O2)c(=O)[nH]c1=O` (centres undefined), the TGI is > 100 µM and 33.9 µM in the experiment on EKVX NSCLC; 52.9 µM and 31.5 µM with HT29 colon; > 100 µM with MOLT-4 leukemia; 32.2 µM with NCI-H522 lung; > 100 µM in the experiment on CCRF-CEM leukemia; > 100 µM and 30.8 µM in the experiment with SK-MEL-28 melanoma. In addition, the TGI in the experiment with TK-10 renal is > 100 µM and 31.8 µM; in the experiment on COLO 205 colon it was 35.8 µM and 32.6 µM; in the experiment on K-562 leukemia, > 100 µM; in the experiment with IGROV1 ovarian, 44.8 µM and 29.4 µM. Further, the GI50 is 37.5 µM and 16.9 µM in the experiment on SK-MEL-28 melanoma; 37.8 µM and 18 µM in the experiment with TK-10 renal.

Turning to `COc1cc2c(c(OC)c1OC)-c1ccc(OC)c(=O)cc1[C@@H](NC(=O)c1ccccc1)CC2`, the GI50 with EKVX NSCLC is > 30 µM; in the experiment on HT29 colon, 0.00658 µM; with MOLT-4 leukemia, < 0.003 µM; with NCI-H522 lung it was 0.00357 µM; in the experiment on SK-MEL-28 melanoma, < 0.003 µM; in the experiment on TK-10 renal, 0.0806 µM. Also, the GI50 with COLO 205 colon is 0.00399 µM; in the experiment with K-562 leukemia, < 0.003 µM; in the experiment with IGROV1 ovarian, 0.00587 µM. Besides, the TGI was > 100 µM in the experiment with EKVX NSCLC; 30 µM and > 73.2 µM in the experiment with MOLT-4 leukemia; 0.0125 µM and 0.0205 µM in the experiment on NCI-H522 lung; > 100 µM with CCRF-CEM leukemia; 30 µM and > 100 µM with SK-MEL-28 melanoma; 30 µM and > 100 µM in the experiment on TK-10 renal. Besides, the TGI with COLO 205 colon was 0.0153 µM and 0.0138 µM; with IGROV1 ovarian, 30 µM and 55.2 µM.

As for `O=C(Cc1ccccc1)NN1C(=O)C(Cl)C1c1cc(Br)ccc1O` (centres undefined), the TGI is 23.9 µM in the experiment on EKVX NSCLC; > 100 µM with HT29 colon; 8.07 µM with MOLT-4 leukemia; > 100 µM in the experiment on NCI-H522 lung; > 100 µM in the experiment with CCRF-CEM leukemia; > 100 µM with SK-MEL-28 melanoma. In addition, the TGI in the experiment on TK-10 renal is > 100 µM; with COLO 205 colon, > 100 µM; in the experiment on K-562 leukemia, 42.7 µM; in the experiment with IGROV1 ovarian, > 100 µM.

Regarding `COC(=O)C1=CNC=C(C(=O)OC)C1C1=CC(=O)C(C)=CC1=O`, the GI50 is 16.3 µM with EKVX NSCLC; 29.9 µM in the experiment on HT29 colon; 2.16 µM in the experiment on MOLT-4 leukemia; 19.8 µM in the experiment with NCI-H522 lung; 4.3 µM in the experiment on CCRF-CEM leukemia; 24.3 µM in the experiment on SK-MEL-28 melanoma. For the same compound, the GI50 in the experiment on TK-10 renal is 6.2 µM; in the experiment on COLO 205 colon, 22.9 µM; in the experiment with K-562 leukemia it was 1.36 µM; with IGROV1 ovarian, 14.3 µM. Further, the TGI in the experiment with EKVX NSCLC was 30 µM; in the experiment with HT29 colon, > 100 µM; in the experiment on MOLT-4 leukemia it was 5.9 µM; in the experiment on NCI-H522 lung, 47.2 µM; with SK-MEL-28 melanoma, > 59.6 µM; in the experiment with TK-10 renal, 15.5 µM. For the same compound, the TGI in the experiment with COLO 205 colon was determined as 55.1 µM; in the experiment on K-562 leukemia, 3.84 µM; in the experiment with IGROV1 ovarian it was 27.5 µM.

Consider `COC(=O)[C@@H](C)CNS(=O)(=O)N(c1cc(C(F)(F)F)cc(C(F)(F)F)c1)C1CCN(Cc2ccc(F)cc2)CC1`, for which the GI50 in the experiment on EKVX NSCLC was 12.2 µM; in the experiment with HT29 colon it was 3.78 µM; in the experiment with MOLT-4 leukemia, 11.5 µM; in the experiment on NCI-H522 lung, 14.9 µM; with CCRF-CEM leukemia, 12.8 µM; with SK-MEL-28 melanoma it was 14 µM. In addition, the GI50 in the experiment on TK-10 renal is 17.2 µM; in the experiment on COLO 205 colon, 1.88 µM; in the experiment on K-562 leukemia it was 4.63 µM; in the experiment on IGROV1 ovarian, 18.8 µM. The TGI stood at 28.9 µM in the experiment with EKVX NSCLC; 14.6 µM in the experiment with HT29 colon; 27.4 µM with MOLT-4 leukemia; 37 µM in the experiment with NCI-H522 lung; 30.7 µM with CCRF-CEM leukemia; 27.8 µM in the experiment with SK-MEL-28 melanoma. Besides, the TGI was 32.7 µM in the experiment on TK-10 renal, 3.59 µM with COLO 205 colon, 16 µM in the experiment with K-562 leukemia and 44.9 µM with IGROV1 ovarian.

Consider `COC1=CC(=O)c2nc(-c3cccc(C)n3)[nH]c2C1=O`, for which the GI50 in the experiment on EKVX NSCLC was 34.8 µM; with HT29 colon, 33.4 µM; in the experiment on MOLT-4 leukemia, 64.7 µM; in the experiment on NCI-H522 lung, 19.1 µM; in the experiment on CCRF-CEM leukemia, 61.8 µM; in the experiment on SK-MEL-28 melanoma, 31.7 µM. Also, the GI50 is 19.4 µM in the experiment with TK-10 renal, 26.5 µM in the experiment with COLO 205 colon, > 100 µM in the experiment with K-562 leukemia and 20.5 µM in the experiment on IGROV1 ovarian. Besides, the TGI in the experiment on EKVX NSCLC is > 100 µM; in the experiment with HT29 colon, > 100 µM; in the experiment on MOLT-4 leukemia, > 100 µM; in the experiment on NCI-H522 lung it was 59.1 µM; in the experiment with CCRF-CEM leukemia it was > 100 µM; in the experiment on SK-MEL-28 melanoma, > 100 µM. In addition, the TGI was 40.2 µM in the experiment on TK-10 renal, 67.7 µM in the experiment with COLO 205 colon, > 100 µM with K-562 leukemia and 47 µM with IGROV1 ovarian.
